What is called MIC is the smallest concentration in the dilution series that meets the test's criterion for growth inhibition. High values mean weaker potency, low ones greater potency. The MIC90 is the lowest concentration that inhibits either 90% of growth or 90% of the strains tested, depending on the study. Read a low MIC90 as greater potency. Broadly, the CC50 is the concentration at which the toxic effect on the cells reaches its halfway point.

We go through six compounds from ChEMBL document CHEMBL3832761, “MMV Pathogen Box Bioactivity Data” (2017).

Values after ≈ are worked out from the molar mass of the structure shown.

Common to all, as to type: functional
In experiment [1] the test system is Mycobacterium tuberculosis. Briefly: AntiMycobacterium tuberculosis activity 2-week Alamar Blue 7H9/cholesterol/BSA/Tx MIC (uM). The conditions noted are these: 336 h.
The test system of experiment [2] is Mycobacterium tuberculosis. Briefly: (§1) AntiMycobacterium tuberculosis activity day 10 in 7H9/2.5mM butyrate/pH6/0.1mM nitrite MIC90 (uM). The conditions noted are these: 240 h.
Experiment [3] has as its system Mycobacterium tuberculosis. Briefly: AntiMycobacterium tuberculosis activity 1-week 7H9/glucose/BSA/Tx MIC (uM). The conditions noted are these: 168 h.
In experiment [4] the test system is Mycobacterium tuberculosis. Briefly: AntiMycobacterium tuberculosis activity day 21 in 7H9/2.5mM butyrate/pH6/0.1mM nitrite MIC90 (uM). The settings on record: 504 h.
Experiment [5] deals with Mycobacterium tuberculosis. Briefly: AntiMycobacterium tuberculosis activity 1-week GAST/Fe MIC (uM). The settings on record: 168 h.
Experiment [6] has as its system Mycobacterium tuberculosis. Briefly: AntiMycobacterium tuberculosis activity 2-week 7H9/DPPC/cholesterol/BSA/Tx MIC (uM). The settings on record: 336 h.
The subject of experiment [7] is Mycobacterium tuberculosis. Briefly: AntiMycobacterium tuberculosis activity Non-Replicating form: Average MIC90 (uM).
The subject of experiment [8] is Mycobacterium tuberculosis. Briefly: AntiMycobacterium tuberculosis activity Replicating form: Average MIC90 (uM).
In experiment [9] the test system is Mycobacterium tuberculosis. Briefly: AntiMycobacterium tuberculosis activity 2-week 7H9/glucose/BSA/Tx MIC (uM). The conditions noted are these: 336 h.
Experiment [10] relates to Mycobacterium tuberculosis. Put plainly: AntiMycobacterium tuberculosis activity 2-week GAST/Fe MIC (uM). The conditions noted are these: 336 h.
In experiment [11] the test system is Mycobacterium tuberculosis. Briefly: AntiMycobacterium tuberculosis activity 1-week 7H9/DPPC/cholesterol/BSA/Tx MIC (uM). The settings on record: 168 h.
Experiment [12] relates to Mycobacterium tuberculosis. The experiment is described as §1. The settings on record: 240 h. This is another data set of the same source.
For experiment [13], the system named is Mycobacterium tuberculosis. Briefly: AntiMycobacterium tuberculosis activity 2-week Alamar Blue 7H9/ADC/Tw MIC (uM). The conditions noted are these: 336 h. In general terms: The colour change of resazurin is a common sign of viable cells or microbes.
Experiment [14] concerns Mycobacterium tuberculosis. Briefly: AntiMycobacterium tuberculosis activity 1-week 7H9/ADC/Tw MIC (uM). The conditions noted are these: 168 h.
The subject of experiment [15] is Mycobacterium tuberculosis. Briefly: AntiMycobacterium tuberculosis activity 2-week 7H9/ADC/Tw MIC (uM). The settings on record: 336 h.
Experiment [16] relates to HepG2. Put plainly: HepG2 CC50 (uM) Cytotoxicity. The conditions noted are these: Homo sapiens.
The subject of experiment [17] is Mycobacterium tuberculosis. Put plainly: AntiMycobacterium tuberculosis activity day 21 MIC99 in 7H9/2.5mM butyrate/pH6/0.1mM nitrite MIC99 (uM). The conditions noted are these: 504 h.
Experiment [18] concerns Mycobacterium tuberculosis. Briefly: AntiMycobacterium tuberculosis activity 1-week 7H9/cholesterol/BSA/Tx MIC (uM). The conditions noted are these: 168 h.

For the compound `COc1cccc(OCC(=O)c2ccc(Br)cc2)c1`, the MIC in experiment [1] amounted to 50 µM (≈ 16.1 µg/mL); in experiment [3], 19 µM (≈ 6.1 µg/mL); in [5], 9.4 µM (≈ 3.02 µg/mL); in [6], 50 µM (≈ 16.1 µg/mL); in experiment [9] it was 50 µM (≈ 16.1 µg/mL); in [10], 9.4 µM (≈ 3.02 µg/mL). Moreover, the MIC in experiment [11] was 19 µM (≈ 6.1 µg/mL); in experiment [13], 25 µM (≈ 8.03 µg/mL); in experiment [14] it was 19 µM (≈ 6.1 µg/mL); in experiment [15] it was 50 µM (≈ 16.1 µg/mL); in experiment [17], 50 µM (≈ 16.1 µg/mL); in [18], 12.5 µM (≈ 4.01 µg/mL). For the same compound, the MIC90 in [2] is 12.5 µM (≈ 4.01 µg/mL); in experiment [4] it was 25 µM (≈ 8.03 µg/mL); in [7], greater than 100 µM; in [8] it was greater than 100 µM; in experiment [12], 25 µM (≈ 8.03 µg/mL). This compound also showed a CC50 in experiment [16] greater than 100 µM.
Take `O=C(c1cc2ccccc2o1)N1CCN(Cc2ccc3c(c2)OCO3)CC1`: the MIC is 6.25 µM (≈ 2.28 µg/mL) in experiment [1]; greater than 50 µM in [3]; 0.1 µM (≈ 0.0364 µg/mL) in experiment [5]; 50 µM (≈ 18.2 µg/mL) in experiment [6]; greater than 50 µM in [9]; 0.2 µM (≈ 0.0729 µg/mL) in experiment [10]. Besides, the MIC is 19 µM (≈ 6.92 µg/mL) in [11]; 12.5 µM (≈ 4.56 µg/mL) in experiment [13]; greater than 50 µM in experiment [14]; greater than 50 µM in experiment [15]; greater than 50 µM in experiment [17]; 37 µM (≈ 13.5 µg/mL) in experiment [18]. Besides, the MIC90 in experiment [2] is 50 µM (≈ 18.2 µg/mL); in experiment [4] it was greater than 50 µM; in experiment [7], 16.6 µM (≈ 6.07 µg/mL); in experiment [8], greater than 100 µM; in experiment [12], greater than 50 µM. In addition, the CC50 in [16] was greater than 100 µM.
Take `CCc1ccc([C@@H]2C[C@H](C(F)(F)F)n3ncc(C(=O)NCc4ccc(OC)cc4)c3N2)cc1`: the MIC in experiment [1] stood at 0.39 µM (≈ 0.179 µg/mL); in [3], 0.6 µM (≈ 0.275 µg/mL); in experiment [5] it was 0.1 µM (≈ 0.0458 µg/mL); in experiment [6], 0.3 µM (≈ 0.138 µg/mL); in [9] it was 0.78 µM (≈ 0.358 µg/mL); in [10], 0.1 µM (≈ 0.0458 µg/mL). The MIC in experiment [11] is 0.2 µM (≈ 0.0917 µg/mL); in experiment [13], 1.56 µM (≈ 0.715 µg/mL); in [14], 0.78 µM (≈ 0.358 µg/mL); in experiment [15], 1.56 µM (≈ 0.715 µg/mL); in experiment [17], greater than 50 µM; in experiment [18], 0.2 µM (≈ 0.0917 µg/mL). The MIC90 in experiment [2] is 6.25 µM (≈ 2.87 µg/mL); in experiment [4], 12.5 µM (≈ 5.73 µg/mL); in experiment [7] it was 1.13 µM (≈ 0.518 µg/mL); in experiment [8], 0.24 µM (≈ 0.11 µg/mL); in [12], greater than 50 µM. In addition, in experiment [16], it took 50.6 µM to reach half-maximal cytotoxicity (CC50).
Regarding `c1cncc(NCc2ccc(-c3cc4ccncc4cc3OC3CCNCC3)s2)c1`, the MIC was 37 µM (≈ 15.4 µg/mL) in experiment [1]; no less than 50 µM in [3]; 3.13 µM (≈ 1.3 µg/mL) in experiment [5]; 50 µM (≈ 20.8 µg/mL) in experiment [6]; no less than 50 µM in experiment [9]; 4.7 µM (≈ 1.96 µg/mL) in [10]. Also, the MIC in [11] is 50 µM (≈ 20.8 µg/mL); in experiment [13], 12.5 µM (≈ 5.21 µg/mL); in experiment [14], 50 µM (≈ 20.8 µg/mL); in [15], 37 µM (≈ 15.4 µg/mL); in experiment [17], greater than 50 µM; in experiment [18], 50 µM (≈ 20.8 µg/mL). For the same compound, the MIC90 is greater than 50 µM in [2]; greater than 50 µM in experiment [4]; 58.7 µM (≈ 24.5 µg/mL) in experiment [7]; 11.8 µM (≈ 4.92 µg/mL) in [8]; greater than 50 µM in experiment [12]. In experiment [16], the midpoint of cytotoxicity, the CC50, lay at 8 µM.
On to `Nc1nc2cc(-c3cncc(Oc4ccc(F)cc4)c3)ccc2[nH]1`, for which the MIC in experiment [1] was determined as 12.5 µM (≈ 4 µg/mL); in experiment [3] it was 19 µM (≈ 6.09 µg/mL); in experiment [5], 6.25 µM (≈ 2 µg/mL); in [6] it was 19 µM (≈ 6.09 µg/mL); in experiment [9] it was 25 µM (≈ 8.01 µg/mL); in experiment [10] it was 6.25 µM (≈ 2 µg/mL). In addition, the minimum inhibitory concentration (MIC) came to 12.5 µM (≈ 4 µg/mL) in [11]; 19 µM (≈ 6.09 µg/mL) in experiment [13]; 19 µM (≈ 6.09 µg/mL) in [14]; 19 µM (≈ 6.09 µg/mL) in experiment [15]; 25 µM (≈ 8.01 µg/mL) in [17]; 12.5 µM (≈ 4 µg/mL) in experiment [18]. Also, the MIC90 in [2] came to 6.25 µM (≈ 2 µg/mL); in experiment [4], 6.25 µM (≈ 2 µg/mL); in experiment [7] it was 41.2 µM (≈ 13.2 µg/mL); in experiment [8], 9.89 µM (≈ 3.17 µg/mL); in experiment [12], 25 µM (≈ 8.01 µg/mL). The compound also displayed a CC50 in [16] of 31.5 µM.
Turning to `O=C(NCc1ccoc1)N1CCN(Cc2ccc3c(c2)OCO3)CC1`, the minimal inhibitory concentration (MIC) is 2.3 µM (≈ 0.79 µg/mL) in experiment [1]; 37 µM (≈ 12.7 µg/mL) in [3]; 0.39 µM (≈ 0.134 µg/mL) in experiment [5]; 25 µM (≈ 8.58 µg/mL) in [6]; greater than 50 µM in experiment [9]; 0.78 µM (≈ 0.268 µg/mL) in experiment [10]. For the same compound, the MIC is 4.7 µM (≈ 1.61 µg/mL) in experiment [11]; 6.25 µM (≈ 2.15 µg/mL) in experiment [13]; greater than 50 µM in experiment [14]; greater than 50 µM in experiment [15]; 25 µM (≈ 8.58 µg/mL) in [17]; 3.13 µM (≈ 1.07 µg/mL) in experiment [18]. The MIC90 in experiment [2] was 6.25 µM (≈ 2.15 µg/mL); in experiment [4] it was 25 µM (≈ 8.58 µg/mL); in experiment [7], 57.1 µM (≈ 19.6 µg/mL); in experiment [8], greater than 100 µM; in experiment [12], 6.25 µM (≈ 2.15 µg/mL). The CC50 in [16] was greater than 100 µM.
